The compounds below were run against T1, CCR1 (Homo sapiens, UniProt P32246) (assay: CCR1 chemotaxis assay or binding assay (inhibition of CCR1 ligand binding / CCR1 mediated migration)).
T1 sequence (P32246 1-355): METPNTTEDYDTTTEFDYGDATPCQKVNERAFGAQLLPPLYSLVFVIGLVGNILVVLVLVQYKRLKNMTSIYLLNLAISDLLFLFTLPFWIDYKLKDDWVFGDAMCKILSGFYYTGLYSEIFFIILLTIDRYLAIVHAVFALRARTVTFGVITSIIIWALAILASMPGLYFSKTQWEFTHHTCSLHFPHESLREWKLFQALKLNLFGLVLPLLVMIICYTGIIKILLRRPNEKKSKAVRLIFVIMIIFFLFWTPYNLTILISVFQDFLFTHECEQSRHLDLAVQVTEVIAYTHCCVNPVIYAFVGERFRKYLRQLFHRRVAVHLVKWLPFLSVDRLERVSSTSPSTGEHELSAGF
Protocol: Cells were grown under 5% CO2/95% air, 100% humidity at 37° C. and subcultured twice weekly at 1:5 (cells were cultured at a density range of 2×10^5 to 2×10^6 cells/mL) and harvested at 1×10^6 cells/mL.
Monocytes were isolated from human buffy coats using the Miltenyi bead isolation system (Miltenyi, Auburn, Calif.). Briefly, following a Ficoll gradient separation to isolate peripheral blood mononuclear cells, cells were washed with PBS and the red blood cells lysed using standard procedures. Remaining cells were labeled with anti-CD14 antibodies coupled to magnetic beads (Miltenyi Biotech, Auburn, Calif.). Labeled cells were passed through AutoMACS (Miltenyi, Auburn, Calif.) and positive fraction collected.
CCR1 expressing cells were centrifuged and resuspended in assay buffer (20 mM HEPES pH 7.1, 140 mM NaCl, 1 mM CaCl2, 5 mM MgCl2, and with 0.2% bovine serum albumin) to a concentration of 5×10^6 cells/mL for THP-1 cells and 5×10^5 for monocytes. Binding assays were set up as follows. […] Reactions were aspirated onto GF/B glass filters pre-soaked in 0.3% polyethyleneimine (PEI) solution, on a vacuum cell harvester (Packard Instruments; Meriden, Conn.). Scintillation fluid (40 μl; Microscint 20, Packard Instruments) was added to each well, the plates were sealed and radioactivity measured in a Topcount scintillation counter (Packard Instruments). Control wells containing either diluent only (for total counts) or excess MIP-1α or MIP-1β (1 μg/mL, for non-specific binding) were used to calculate the percent of total inhibition for compound. The computer program Prism from GraphPad, Inc. (San Diego, Calif.) was used to calculate IC50 values.
Chemotaxis assays were performed using 5 ? m pore polycarbonate, polyvinylpyrrolidone-coated filters in 96-well chemotaxis chambers (Neuroprobe; Gaithersburg, Md.) using chemotaxis buffer (Hank's balanced salt solution (HBSS) and 1% FBS). CCR1 chemokine ligands (i.e., MIP-1α, CCL15/Leukotactin; R&D Systems; Minneapolis, Minn.) are use to evaluate compound mediated inhibition of CCR1 mediated migration. Other chemokines (i.e., SDF-1α; R&D Systems; Minneapolis, Minn.) are used as specificity controls. […] The chambers were incubated 1-2 hours at 37° C., and the number of cells in the lower chamber quantified either by direct cell counts in five high powered fields per well or by the CyQuant assay (Molecular Probes), a fluorescent dye method that measures nucleic acid content and microscopic observation.
Equal numbers of cells were added to each well in the plate. The cells were then incubated with radiolabeled MIP-1α. Unbound ligand was removed by washing the cells, and bound ligand was determined by quantifying radioactive counts. […] Percent inhibition was determined by the equation:
In the assay, the amount of compound was varied; while cell number and ligand concentration were held constant.
THP-1 myelomonocytic leukemia cells, which resemble monocytes, as wells as freshly isolated monocytes, were used as targets for chemoattraction by CCR1 chemokine ligands (i.e., MIP-1α, CCL15/leukotactin). […] In this assay, the amount of compound was varied; while cell number and chemokine agonist concentrations were held constant. After the chemotaxis chambers were incubated 1-2 hours at 37° C., the responding cells in the lower chamber were quantified by labeling with the CyQuant assay (Molecular Probes), a fluorescent dye method that measures nucleic acid content, and by measuring with a Spectrafluor Plus (Tecan).

`Cc1c(Cl)c(C(F)(F)F)nn1CC(=O)N1CCC(C#N)(c2ccc(Cl)cc2)CC1` [Example 1, 1-[2-(4-chloro-5-methyl-3-trifluoromethyl-pyrazol-1-yl)-acetyl]-4-(4-chloro-phenyl)-piperidine-4-carbonitrile] and `Cc1c(Cl)c(C(F)(F)F)nn1CC(=O)N1CCC(O)(c2ccc(Cl)cc2)CC1` [Example 8, 2-(4-Chloro-5-methyl-3-trifluoromethyl-pyrazol-1-yl)-1-(4-hydroxy-4-(4-chloro)-phenyl-piperidin-1-yl)-ethanone] cannot be ordered by IC50: < 1000 nM for the first, < 1000 nM for the second.

Compared with `COC(=O)C1(c2ccc(Cl)cc2)CCN(C(=O)Cn2nc(C(F)(F)F)c(Cl)c2C)CC1` [Example 2, 1-[2-(4-chloro-5-methyl-3-trifluoromethyl-pyrazol-1-yl)-acetyl]-4-(4-chloro-phenyl)-piperidine-4-carboxylic acid methyl ester], `CNC(=O)C1(c2ccc(Cl)cc2)CCN(C(=O)Cn2nc(C(F)(F)F)c(Cl)c2C)CC1` [Example 13, 1-[2-(4-chloro-5-methyl-3-trifluoromethyl-pyrazol-1-yl)-acetyl]-4-(4-chloro-phenyl)-piperidine-4-methylamide] is higher in IC50: < 1000 nM for the first, 1000 to 25000 nM for the second.

`Cc1c(Cl)c(-c2ncco2)nn1CC(=O)N1CCC(C#N)(c2ccc(Cl)cc2)CC1` [Example 3, 1-[2-(4-chloro-5-methyl-3-oxazol-2-yl-pyrazol-1-yl)-acetyl]-4-(4-chloro-phenyl)-piperidine-4-carbonitrile] and `COc1cc(C2(O)CCN(C(=O)Cn3nc(-c4ncco4)c(Cl)c3C)CC2)ccc1Cl` [Example 5, 1-[4-(4-Chloro-3-methoxy-phenyl)-4-hydroxy-piperidin-1-yl]-2-(4-chloro-5-methyl-3-oxazol-2-yl-pyrazol-1-yl)-ethanone] cannot be ordered by IC50: < 1000 nM for the first, < 1000 nM for the second.

`COc1cc(C2(O)CCN(C(=O)Cn3nc(C(F)(F)F)c(Cl)c3C)CC2)ccc1Cl` [Example 4, 1-[4-(4-Chloro-3-methoxy-phenyl)-4-hydroxy-piperidin-1-yl]-2-(4-chloro-5-methyl-3-trifluoromethyl-pyrazol-1-yl)-ethanone] and `COc1cc(C2(C#N)CCN(C(=O)Cn3nc(C(F)(F)F)c(Cl)c3C)CC2)ccc1Cl` [Example 26] cannot be ordered by IC50: < 1000 nM for the first, < 1000 nM for the second.

First: COc1cc(C2(O)CCN(C(=O)COc3ccc(Cl)cc3)CC2)ccc1Cl [Example 6, 1-[4-(4-Chloro-3-methoxy-phenyl)-4-hydroxy-piperidin-1-yl]-2-(4-chloro-phenoxy)-ethanone]
Second: Cc1c(Cl)c(C(F)(F)F)nn1CC(=O)N1CCC(CO)(c2ccc(Cl)cc2)CC1 [Example 23, 2-(4-chloro-5-methyl-3-trifluoromethyl-pyrazol-1-yl)-1-[4-(4-chloro-phenyl)-4-hydroxymethyl-piperidin-1-yl]-ethanone]
The IC50 of the first is lower: < 1000 nM for the first, 1000 to 25000 nM for the second. The first is the more potent here.

`Cc1c(Cl)c(C(F)(F)F)nn1CC(=O)N1CCC(O)(c2ccccc2)CC1` [Example 7, 2-(4-Chloro-5-methyl-3-trifluoromethyl-pyrazol-1-yl)-1-(4-hydroxy-4-phenyl-piperidin-1-yl)-ethanone] and `CC(=O)C1(c2ccccc2)CCN(C(=O)Cn2nc(C(F)(F)F)c(Cl)c2C)CC1` [Example 27, 1-(4-Acetyl-4-phenyl-piperidin-1-yl)-2-(4-chloro-5-methyl-3-trifluoromethyl-pyrazol-1-yl)-ethanone] fall in the same range of IC50: 1000 to 25000 nM for the first, 1000 to 25000 nM for the second.

`Cc1c(Cl)c(C(F)(F)F)nn1CC(=O)N1CCC(O)(c2ccc(Cl)c(C(F)(F)F)c2)CC1` [Example 9, 2-(4-Chloro-5-methyl-3-trifluoromethyl-pyrazol-1-yl)-1-(4-hydroxy-4-(4-chloro-3-trifluoromethyl)-phenyl-piperidin-1-yl)-ethanone] and `Cc1c(Cl)c(C(F)(F)F)nn1CC(=O)N1CCC(O)(c2cccc(C(F)(F)F)c2)CC1` [Example 11, 2-(4-Chloro-5-methyl-3-trifluoromethyl-pyrazol-1-yl)-1-(4-hydroxy-4-(3-trifluoromethyl)-phenyl-piperidin-1-yl)-ethanone] fall in the same range of IC50: 1000 to 25000 nM for the first, 1000 to 25000 nM for the second.

First: Cc1c(Cl)c(C(F)(F)F)nn1CC(=O)N1CCC(O)(c2ccc(Br)cc2)CC1 [Example 10, 2-(4-Chloro-5-methyl-3-trifluoromethyl-pyrazol-1-yl)-1-(4-hydroxy-4-(4-bromo)-phenyl-piperidin-1-yl)-ethanone]
Second: Cc1c(Cl)c(C(F)(F)F)nn1CC(=O)N1CCC(C(N)=O)(c2ccc(Cl)cc2)CC1 [Example 22, 1-[2-(4-chloro-5-methyl-3-trifluoromethyl-pyrazol-1-yl)-acetyl]-4-(4-chloro-phenyl)-piperidine-4-carboxylic acid amide]
The IC50 of the first is higher: 1000 to 25000 nM for the first, < 1000 nM for the second. The second is the more potent here.

`Cc1c(Cl)c(C(F)(F)F)nn1CC(=O)N1CCC(C#N)(c2ccccc2)CC1` [Example 12, 1-[2-(4-chloro-5-methyl-3-trifluoromethyl-pyrazol-1-yl)-acetyl]-4-phenyl-piperidine-4-carbonitrile] and `CCC(=O)C1(c2ccccc2)CCN(C(=O)Cn2nc(C(F)(F)F)c(Cl)c2C)CC1` [Example 28, 1-(4-ethylcarbonyl-4-phenyl-piperidin-1-yl)-2-(4-chloro-5-methyl-3-trifluoromethyl-pyrazol-1-yl)-ethanone] fall in the same range of IC50: 1000 to 25000 nM for the first, 1000 to 25000 nM for the second.

First: CCN(CC)C(=O)C1(c2ccc(Cl)cc2)CCN(C(=O)Cn2nc(C(F)(F)F)c(Cl)c2C)CC1 [Example 14, 1-[2-(4-chloro-5-methyl-3-trifluoromethyl-pyrazol-1-yl)-acetyl]-4-(4-chloro-phenyl)-piperidine-4-diethylamide]
Second: Cc1c(Cl)c(C(F)(F)F)nn1CC(=O)N1CCC(C(=O)O)(c2ccc(Cl)cc2)CC1 [Example 25, 1-[2-(4-chloro-5-methyl-3-trifluoromethyl-pyrazol-1-yl)-acetyl]-4-(4-chloro-phenyl)-piperidine-4-carboxylic acid]
The IC50 of the first is lower: 1000 to 25000 nM for the first, > 25000 nM for the second.

`Cc1c(Cl)c(C(F)(F)F)nn1CC(=O)N1CCC(C(=O)N2CCCC2)(c2ccc(Cl)cc2)CC1` [Example 15, 2-(4-chloro-5-methyl-3-trifluoromethyl-pyrazol-1-yl)-1-[4-(4-chloro-phenyl)-4-(pyrrolidine-1-carbonyl)-piperidin-1-yl]-ethanone] and `Cc1c(Cl)c(C(F)(F)F)nn1CC(=O)N1CCC(C(=O)N2CCCCC2)(c2ccc(Cl)cc2)CC1` [Example 16, 2-(4-chloro-5-methyl-3-trifluoromethyl-pyrazol-1-yl)-1-[4-(4-chloro-phenyl)-4-(piperidine-1-carbonyl)-piperidin-1-yl]-ethanone] fall in the same range of IC50: 1000 to 25000 nM for the first, 1000 to 25000 nM for the second.

Compared with `Cc1c(Cl)c(C(F)(F)F)nn1CC(=O)N1CCC(C(=O)N2CCNCC2)(c2ccc(Cl)cc2)CC1` [Example 17, 2-(4-chloro-5-methyl-3-trifluoromethyl-pyrazol-1-yl)-1-[4-(4-chloro-phenyl)-4-(piperazine-1-carbonyl)-piperidin-1-yl]-ethanone], `Cc1c(Cl)c(C(F)(F)F)nn1CC(=O)N1CCC(C(=O)N2CCOCC2)(c2ccc(Cl)cc2)CC1` [Example 19, 2-(4-chloro-5-methyl-3-trifluoromethyl-pyrazol-1-yl)-1-[4-(4-chloro-phenyl)-4-(4-morpholine-1-carbonyl)-piperidin-1-yl]-ethanone morpholine] is lower in IC50: > 25000 nM for the first, 1000 to 25000 nM for the second. The second is the more potent here.

Going from `Cc1c(Cl)c(C(F)(F)F)nn1CC(=O)N1CCC(C(=O)N2CCN(C)CC2)(c2ccc(Cl)cc2)CC1` [Example 18, 2-(4-chloro-5-methyl-3-trifluoromethyl-pyrazol-1-yl)-1-[4-(4-chloro-phenyl)-4-(4-methyl-piperazine-1-carbonyl)-piperidin-1-yl]-ethanone] to `Cc1c(Cl)c(C(F)(F)F)nn1CC(=O)N1CCC(C(=N)NO)(c2ccc(Cl)cc2)CC1` [Example 21, 1-[2-(4-chloro-5-methyl-3-trifluoromethyl-pyrazol-1-yl)-acetyl]-4-(4-chloro-phenyl)-N-hydroxy-piperidine-4-carboxamidine], the IC50 falls from > 25000 nM to < 1000 nM.

`Cc1c(Cl)c(C(F)(F)F)nn1CC(=O)N1CCC(c2ccc(Cl)cc2)(c2nnn[nH]2)CC1` [Example 20, 2-(4-chloro-5-methyl-3-trifluoromethyl-pyrazol-1-yl)-1-[4-(4-chloro-phenyl)-4-(1H-tetrazol-5-yl)-piperidin-1-yl]-ethanone] and `Cc1c(Cl)c(C(F)(F)F)nn1CC(=O)N1CCC(CN)(c2ccc(Cl)cc2)CC1` [Example 24, 1-[4-aminomethyl-4-(4-chloro-phenyl)-piperidin-1-yl]-2-(4-chloro-5-methyl-3-trifluoromethyl-pyrazol-1-yl)-ethanone] fall in the same range of IC50: 1000 to 25000 nM for the first, 1000 to 25000 nM for the second.

In the case of `CCCC(=O)C1(c2ccccc2)CCN(C(=O)Cn2nc(C(F)(F)F)c(Cl)c2C)CC1` [Example 29, 1-(4-propylcarbonyl-4-phenyl-piperidin-1-yl)-2-(4-chloro-5-methyl-3-trifluoromethyl-pyrazol-1-yl)-ethanone], the IC50 is reported as < 1000 nM.

Reference: patent US7576218B2, “4-phenylpiperdine-pyrazole CCR1 antagonists” (ChemoCentryx, Inc., priority 2005, dated 2009)
